Test results: patent US20250009731A1, “TOLL-LIKE RECEPTOR THERAPY COMBINATIONS WITH CBL-B INHIBITOR COMPOUNDS” (NURIX THERAPEUTICS, INC., priority 2021, published 2025)

Key:
[1] = test system: total primary human T-cells; assay: IL-2 and IFN-γ release by stimulated total primary human T-cells (ELISA); assay type: cell-based; details: plate bound anti-CD3, with and without CD28 co-stimulation, lesser degree without co-stimulation
Method: Cells were stimulated with plate bound anti-CD3 (right) or anti-CD3/anti-CD28 (left) in presence or absence of the indicated concentration of Compound 23. Release of IL-2 or IFN-γ were assessed by ELISA. Compound 23 inhibition of Cbl-b enhanced IL-2 and IFN-γ secretion in primary human T cells stimulated with anti-CD3 antibodies, in both the presence and absence of CD28 co-stimulation, although to a lesser degree in the absence of co-stimulation.

CT26 tumors [2] = assay: CT26 colon carcinoma tumor model, tumor volume; assay type: in vivo, mice; details: oral 10 mg/kg or 30 mg/kg, Day 7 to Day 32; tumor volume at Day 25
Method: Mice bearing tumors on their left and right flanks were treated from Day 7 to Day 32 with oral Compound 23 at 10 mg/kg or 30 mg/kg or vehicle. Volumes at Day 25 are indicated. Statistics were calculated with one-way ANOVA and Dunn's multiple comparisons test ** P<0.01.

4T1 tumors [3] = assay: 4T1 triple negative mammary carcinoma metastatic model with primary tumor resection, survival; assay type: in vivo, mice; details: oral 30 mg/kg daily
Text: Another in vivo study evaluated the ability of Compound 23 treatment, started before the primary tumor resection, to eradicate 4T1 breast carcinoma metastatic disease. The 4T1 triple negative mammary carcinoma is a transplantable tumor cell line that is highly tumorigenic and invasive and, unlike most tumor models, spontaneously metastasizes from a primary tumor growing in the mammary gland to multiple distant sites including lymph nodes, blood, liver, lung, brain, and bone. Tumor cells are easily transplanted into the mammary glands so that the primary tumor grows in the anatomically relevant site. The progressive spread of 4T1 metastases to other organs is very similar to that of human mammary cancer. Animals die from disseminated metastatic disease regardless of resection of the primary tumor (Pulaski et al., 2000, Current Protocols in Immunology 39(1):20.2.1-20.2.16). […] Beginning on Day 7, tumor volumes were measured twice weekly until they reached a mean tumor volume of 145 mm^3 when the primary tumors were resected on Day 14 or 15 (dotted line). Median survival times were calculated for each group and body weights were monitored until the end of the study on Day 140. Body weights were measured twice weekly then once weekly starting Day 47. […] Statistical significance of differences in conditional survival between groups was evaluated using the Log-rank (Mantel-Cox) test. […] Median survival is reported as undefined for the Compound 23 group, as survival exceeds 50% at Day 140.

CT26 tumors [4] = assay: nCounter Mouse PanCancer Immune Profiling Panel gene expression in CT26 tumors; assay type: in vivo, mice; details: vs vehicle
Text: In this example, the gene expression changes induced in tumors from mice treated with Compound 23 studies were as investigated. To perform this assessment, the nCounter PanCancer Immune Profiling Panel was used, which is a multiplexed gene expression panel developed by NanoString Technologies that measures expression of 770 immune and cancer related genes (Eastel et al., 2019, Expert Review of Molecular Diagnostics, 19(7):591-598). This technology is a unique gene expression tool that covers many important features of the immune response in the tumor microenvironment and was used to facilitate the understanding of immune related changes in tumors treated with Compound 23.
In FIG. 4A, CT26 tumors were harvested after 4 doses and after 19 doses of Compound 23 or vehicle and gene expression was directly measured using the nCounter Mouse PanCancer Immune Profiling Panel. Analysis was performed using the nSolver 4.0 and the nCounter Advanced Analysis software comparing gene expression in Compound 23 to vehicle treated tumors. […] Statistical significance of differences in mean cell type scores between Compound 23 and vehicle treated groups was evaluated using Mann-Whitney test (* P≤0.05, ** P≤0.01, and *** P≤0.001).
(§1) In FIG. 4B, CT26 tumors were harvested after 4 treatment doses and gene expression was directly measured using the nCounter Mouse PanCancer Immune Profiling Panel. Analysis was performed using the nSolver 4.0 and the nCounter Advanced Analysis software comparing gene expression in Compound 23 to vehicle treated tumors. As indicated in the titles above each panel, scatter plots of individual Pathway Signature Scores of vehicle and Compound 23 treated tumors are shown. Statistical significance of differences in Pathway Signature Scores between Compound 23 and vehicle treated groups was evaluated using Mann-Whitney test (* P≤0.05, ** P≤0.01, and *** P≤0.001).
as §1, with “FIG. 4C,” for “FIG. 4B,”, “after 19” for “after 4”

CT26 tumors [5] = assay: CT26 tumor model with depleting antibodies for CD4+, CD8+ or NK cells; assay type: in vivo, mice; details: 30 mg/kg PO QD Day 9 to Day 25; tumor volume at Day 25
Text: Tumor volume at Day 25 is indicated. CD8+ T-cell or NK cell depletion abrogates Compound 23 activity. Stats calculated with Mann-Whitney (Vehicle vs. Compound 23) or one-way ANOVA with Dunn's multiple comparisons test (Compound 23 vs. Depletion groups); * P≤0.05, ** P≤0.01, **** P≤0.0001 The efficacy of Compound 23 on tumors is linked to CD8+ T function and on NK cell function.

4T1 tumors [6] = assay: Flow cytometry of tumor and blood from orthotopic 4T1 tumor-bearing mice; assay type: in vivo
Text: Tumor and blood samples were harvested on Day 28 and analyzed by Flow Cytometry.

CT26 tumors [7] = assay: Flow cytometry of tumor-infiltrating immune cells in CT26 tumors; assay type: in vivo, mice; details: 30 mg/kg daily PO, 19 doses
Method: CT26 tumors were harvested after 19 doses of Compound 23 or vehicle and tumor-infiltrating immune cell density and phenotype was assessed by Flow Cytometry.

C[C@H]1CCCN(Cc2cc3c(c(C(F)(F)F)c2)CN(c2cccc([C@]4(c5nncn5C)C[C@@H](C)C4)c2)C3=O)C1 [Compound 23]
IFN-γ secretion [1]: enhanced
IL-2 secretion [1]: enhanced
anti-tumor activity, CT26 colon carcinoma model (CT26 tumors [2]): significant anti-tumor activity
survival at Day 140 (4T1 tumors [3]): exceeds 50%
anti-tumor activity, metastatic triple negative breast tumor model 4T1 (4T1 tumors [3]; Day 8 to Day 46): significant anti-tumor activity
median survival time compared to vehicle control (4T1 tumors [3]; Day 8 to Day 46, primary tumor resected Day 14 or 15, Log-rank test): significantly increased
mice that remained tumor free until the end of the study (4T1 tumors [3]; Day 140): 54%
median survival (4T1 tumors [3]; study end Day 140): undefined
cytotoxic cells score (CT26 tumors [4]; after 4 doses, oral 30 mg/kg daily, P=0.1061): clear trend of increased infiltration
tumor infiltrating lymphocytes (TIL) score (CT26 tumors [4]; after 4 doses, oral 30 mg/kg daily, P=0.6679): clear trend of increased infiltration
T-cell score (CT26 tumors [4]; after 4 doses, oral 30 mg/kg daily, P=0.7551): clear trend of increased infiltration
pathway scores of innate immune signaling: dendritic cell function, macrophage function, chemokine receptors and pathways (CT26 tumors [4]; after 4 doses): significant gene expression changes
pathway scores of T-cell, B cell, NK cell and adaptive immune function (CT26 tumors [4]; after 4 doses, trend for increases): not significant
cytotoxic cell score (CT26 tumors [4]; after 19 doses, oral, P=0.0002): significant increases
tumor infiltrating lymphocytes (TIL) score (CT26 tumors [4]; after 19 doses, oral, P=0.0044): significant increases
T-cell score (CT26 tumors [4]; after 19 doses, oral, P=0.0098): significant increases
immune related pathway scores: dendritic cell, macrophage, T-cell, NK cell, B cell, interferon function, adaptive immunity, chemokine and receptor, cytokine and receptor (CT26 tumors [4]; after 19 doses): significantly enhanced function
effect of CD8+ T-cell depletion on antitumor activity (CT26 tumors [5]): abrogates
effect of NK cell depletion (anti-asialo-GM1) on antitumor activity (CT26 tumors [5]): abrogates
frequency of tumor gp70 antigen-specific CD8+ T-cells (AH1 Dextramer+ CD8+ T-cells) in 4T1 tumors (4T1 tumors [6]; 30 mg/kg daily PO Day 9 to Day 28, FIG. 6A): increased
frequency of gp70 antigen-specific CD8+ T-cells with exhaustion phenotype (PD-1+ LAG3+) in 4T1 tumors (4T1 tumors [6]; 30 mg/kg daily PO Day 9 to Day 28, FIG. 6B): decreased
frequency of circulating CD8+ T-cells with activated phenotype (PD-1+) in blood (4T1 tumors [6]; 30 mg/kg daily PO Day 9 to Day 28, FIG. 6C): increased
frequency of circulating CD8+ T-cells with memory phenotype (CD44+CD27+CD127+) in blood (4T1 tumors [6]; 30 mg/kg daily PO Day 9 to Day 28, FIG. 6D): increased
number of tumor-infiltrating leukocytes (TIL) per gram of tumor (CT26 tumors [7]; FIG. 7A): increased
frequency of total CD3+ T cells as a percentage of CD45+ leukocytes (CT26 tumors [7]; FIG. 7B): increased
frequency of total CD8+ T cells as a percentage of CD45+ leukocytes (CT26 tumors [7]; FIG. 7C): increased
number of total CD8+ T-cells per gram of tumor (CT26 tumors [7]; FIG. 7D): increased
frequency of CD8+ T-cells that express the activation marker CD29 (CD29+) (CT26 tumors [7]; FIG. 7E): increased
CD8+ T-cells to Tregs ratio (CT26 tumors [7]; FIG. 7F): increased
CD8+ effector T-cells (PD1+) to Tregs ratio (CT26 tumors [7]; FIG. 7G): increased
frequency of activated NK cells (CD11b+) that express Granzyme+ (CT26 tumors [7]; FIG. 7H): increased
frequency of activated NK cells (CD27+CD11 b+) that express Granzyme+ (CT26 tumors [7]; FIG. 7I): increased
